Results as given in article PMC11428108 (Frontiers in Molecular Neuroscience, 2024).

Key:
[1] = tested on: Chrna5^+/+ and Chrna5^−/− mice; experiment: Open-field locomotor activity, SR9883 alone or with nicotine; format: in vivo; details: for Cumulative distance traveled during 60 min session: SR9883 5 or 10 mg kg^−1 IP
Method: Locomotor activity was assessed in an open-field apparatus (40 cm × 40 cm; Omnitech Electronics Inc.) under low illumination (~30 radiometric lux). Mice were habituated to the apparatus for 60 min on the day before treatments commenced. On test days, mice received a total of two systemic injections. First, mice were injected intraperitoneally with SR9883 (0, 5, 10 mg kg^−1) and returned to their home cages. […] Mice were then placed in the center of the apparatus and the total distance they traveled was recorded for 60 min (Fusion software, Omnitech Electronics Inc.). Concentration-response curves of SR9883 actions in nAChR-expressing HEK cells and oocytes were fitted to the Hill equation using a nonlinear least squares curve fit method and efficacy and potency values were calculated as previously described ([Wang et al., 2015]). Plasma and brain levels of SR9983 after oral administration were compared using a two-tailed paired t test. […] For the ICSS threshold experiment, percentages of baseline reward threshold scores were calculated by expressing the absolute threshold scores as a percentage of the scores obtained during baseline. The baseline values were the mean thresholds on the three sessions prior to drug injections. Response latency data were analyzed in the same manner as the threshold data. […] Effects of SR9883 on responding for food pellets in rats was analyzed by a two-tailed paired t test. […] Significant main or interaction effects in ANOVAs were followed by Bonferroni or Newman–Keuls post-hoc tests as appropriate. All statistical analyses were performed using GraphPad Prism software with α set to 0.05.

male C57BL/6J mice = experiment: Intracranial self-stimulation (ICSS) thresholds in mice with saline or nicotine osmotic minipumps; format: in vivo; details: SR9883 10 mg kg^−1 IP
From the text: Mice were anesthetized with a mixture of isoflurane (1–3%) and oxygen vapor then positioned in a stereotaxic frame in the flat-skull position (Kopf Instruments) ([Fowler et al., 2013]; [Johnson et al., 2008]). A stainless-steel bipolar electrode (Plastics One) was implanted into the lateral hypothalamus according to the following stereotaxic coordinates: Anterior/Posterior: −0.5 mm from bregma; […] Dorsal/Ventral: −5.0 mm from brain surface ([Fowler et al., 2013]; [Johnson et al., 2008]; [Paxinos and Franklin, 2001]). Mice were permitted 72 h to recover from surgery prior to training in the ICSS procedure. Mice were permitted to respond for intracranial electrical stimulation according to a modification of the discrete-trial current-threshold procedure developed by Kornetsky and colleagues ([Gill et al., 2004]), as previously described ([Fowler et al., 2013]; [Johnson et al., 2008]). […] The frequency of the stimulation was selected for each mouse so that current-intensity thresholds were within 25 to 400 μA, permitting threshold elevations and reductions to be reliably detected. This frequency for each mouse was held constant throughout the experiment. […] The time between the onset of the non-contingent stimulus and a positive response was recorded as the response latency. […] Effects of intraperitoneal injections of SR9883 on ICSS thresholds were assessed >7 days after minipump implantation. Concentration-response curves of SR9883 actions in nAChR-expressing HEK cells and oocytes were fitted to the Hill equation using a nonlinear least squares curve fit method and efficacy and potency values were calculated as previously described ([Wang et al., 2015]). […] For the ICSS threshold experiment, percentages of baseline reward threshold scores were calculated by expressing the absolute threshold scores as a percentage of the scores obtained during baseline. […] Response latency data were analyzed in the same manner as the threshold data. […] Effects of SR9883 on responding for food pellets in rats was analyzed by a two-tailed paired t test. […]

In the case of `N#Cc1cccc(-n2nnc(-c3cccnc3)n2)c1` [SR9883, 3-(5-(pyridin-3-yl)-2H-tetrazol-2-yl)benzonitrile], the “Locomotor activity (total distance traveled) vs vehicle” value ([1]; SR9883 5 mg kg^−1, nicotine-injected Chrna5^+/+ and Chrna5^−/− mice, p = 0.0002) was “reduced”, the “Locomotor activity (total distance traveled) vs vehicle” value ([1]; SR9883 10 mg kg^−1, nicotine-injected Chrna5^+/+ and Chrna5^−/− mice, p = 0.0049) was “reduced” and the “Cumulative distance traveled during 60 min session” value ([1]; nicotine (0.25 mg kg^−1 SC)-injected Chrna5^+/+ mice, Dose x Time p = 0.0047) was “decreased”. For the same compound, the “Cumulative distance traveled during 60 min session” value ([1]; nicotine (0.25 mg kg^−1 SC)-injected Chrna5^−/− mice, Dose x Time p = 0.0946, not significant) was “tended to be decreased”, the “Cumulative distance traveled during 60 min session” value ([1]; saline-injected Chrna5^+/+ mice) was “unchanged” and the “Cumulative distance traveled during 60 min session” value ([1]; saline-injected Chrna5^−/− mice) was “unchanged”. For the same compound, the ICSS response latencies (male C57BL/6J mice; minipumps delivering either saline or nicotine) was “had no effect”, the ICSS thresholds (male C57BL/6J mice; nicotine-delivering osmotic minipumps (24 mg kg^−1 per day), p = 0.0278 vs vehicle) was “elevated” and the ICSS thresholds (male C57BL/6J mice; saline-delivering osmotic minipumps) was “had no effect”.
